# Experimental data published in patent US9469615B2, “Quinoxalines and AZA-quinoxalines as CRTH2 receptor modulators” (Merck Sharp & Dohme Corp., priority 2010, dated 2016).
# Biological target: T1, hCRTH2 (Homo sapiens, UniProt Q9Y5Y4)
# T1 construct: expressed in transfected cells; host or cells: HEK (human embryonic kidney) cells expressing hCRTH2; membrane preparation
# T1 sequence (Q9Y5Y4 1-395): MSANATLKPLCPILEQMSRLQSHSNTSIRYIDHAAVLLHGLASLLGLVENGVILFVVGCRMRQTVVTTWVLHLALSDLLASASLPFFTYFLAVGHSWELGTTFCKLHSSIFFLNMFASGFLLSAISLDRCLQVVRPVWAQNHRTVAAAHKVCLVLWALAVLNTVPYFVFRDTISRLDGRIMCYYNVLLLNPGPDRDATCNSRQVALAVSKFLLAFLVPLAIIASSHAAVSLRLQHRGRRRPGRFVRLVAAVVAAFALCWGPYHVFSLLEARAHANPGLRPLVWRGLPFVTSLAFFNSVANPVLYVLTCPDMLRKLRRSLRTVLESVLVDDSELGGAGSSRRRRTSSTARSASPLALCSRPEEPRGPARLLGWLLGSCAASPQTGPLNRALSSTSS
# Assay: Radioligand binding assay ([3H]PGD2 competition, HEK-hCRTH2 membranes)
# Conditions: [3H]PGD2 competition, Table B
# Procedure, shortened: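 HEK-hCRTH2 membranes, 8-20 μg; [3H]PGD2 3.0 nM; 50 mM Tris-HCl pH 7.4/1 mM EDTA/2 mM MnCl2; DMSO 1%; 60 min RT; NSB 10 μM PGD2; filtration, scintillation counting.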
row,Structure (SMILES),Ki
1,O=C(O)CCCCc1nc2cc(C(=O)N3CCC4(CC3)NC(=O)Cc3ccccc34)ccc2nc1-c1ccc(Cl)cc1 [compound 567],0.1 to 2 nM
2,"O=C(O)CCCCc1nc2cc(C(=O)N3CCC4(CC3)Cc3ccccc3C(=O)N4)ccc2nc1-c1ccc(Cl)cc1 [compound 568, 5-(3-(4-chlorophenyl)-7-(1-oxo-2,4-dihydro-1H-spiro[isoquinoline-3,4′-piperidin]-1′-ylcarbonyl)quinoxalin-2-yl)pentanoic acid]",2.1 to 20 nM
3,"O=C(O)CCCCc1nc2cc(C(=O)N[C@@H]3CCSc4ccccc43)ccc2nc1-c1ccc(Cl)cc1 [compound 569, (R)-5-(3-(4-chlorophenyl)-7-(thiochroman-4-ylcarbamoyl)quinoxalin-2-yl)pentanoic acid]",0.1 to 2 nM
4,"O=C(O)CCCCc1nc2cc(C(=O)N[C@@H]3CCCCc4ccccc43)ccc2nc1-c1ccc(Cl)cc1 [compound 570, (R)-5-(3-(4-chlorophenyl)-7-((6,7,8,9-tetrahydro-5H-benzo[7]annulen-5-yl)carbamoyl)quinoxalin-2-yl)pentanoic acid]",2.1 to 20 nM
5,"C[C@H](NC(=O)c1ccc2nc(-c3ccc(F)cc3)c(CCCCC(=O)O)nc2c1)c1ccc(F)c2ccccc12 [compound 571, (S)-5-(7-((1-(4-fluoronaphthalen-1-yl)ethyl)carbamoyl)-3-(4-fluorophenyl)quinoxalin-2-yl)pentanoic acid]",2.1 to 20 nM
6,"O=C(O)CCCCc1nc2cc(C(=O)NC3CC(=O)Nc4ccccc43)ccc2nc1-c1ccccc1 (centres unmarked) [compound 576, 5-(7-((2-oxo-1,2,3,4-tetrahydroquinolin-4-yl)carbamoyl)-3-phenylquinoxalin-2-yl)pentanoic acid]",2.1 to 20 nM
7,"O=C(O)CCCCc1nc2cc(C(=O)NC3CCCOc4ccccc43)ccc2nc1-c1ccc(Cl)cc1 (centres unmarked) [compound 579, 5-(3-(4-chlorophenyl)-7-((2,3,4,5-tetralaydrobenzo[b]oxepin-5-yl)carbamoyl)quinoxalin-2-yl)pentanoic acid]",2.1 to 20 nM
8,"O=C(O)CCCCc1nc2cc(C(=O)N[C@H]3COc4ccccc43)ccc2nc1-c1ccc(Cl)cc1 [compound 580, (R)-5-(3-(4-chlorophenyl)-7-((2,3-dihydrobenzofuran-3-yl)carbamoyl)quinoxalin-2-yl)pentanoic acid]",0.1 to 2 nM
9,"O=C(O)CCCCc1nc2cc(C(=O)N3CCC4(CCCc5ccccc54)C3)ccc2nc1-c1ccc(Cl)cc1 (centres unmarked) [compound 583, 5-(3-(4-chlorophenyl)-7-(3,4-dihydro-2H-spiro [naphthalene-1,3′-pyrrolidin]-1′-ylcarbonyl)quinoxalin-2-yl)pentanoic acid]",0.1 to 2 nM
10,"O=C(O)CCCCc1nc2cc(C(=O)NC3C(=O)Nc4ccccc43)ccc2nc1-c1ccc(Cl)cc1 (centres unmarked) [compound 584, 5-(3-(4-chlorophenyl)-7-((2-oxoindolin-3-yl)carbamoyl)quinoxalin-2-yl)pentanoic acid]",2.1 to 20 nM
11,"O=C(O)CCCCc1nc2cc(C(=O)N3CCN(C(=O)OCc4ccccc4)CC3)ccc2nc1-c1ccc(Cl)cc1 [compound 590, 5-(7-(4-((benzyloxy)carbonyl)piperazine-1-carbonyl)-3-(4-chlorophenyl)quinoxalin-2-yl)pentanoic acid]",2.1 to 20 nM
12,"O=C(O)CCCCc1nc2cc(C(=O)N3CCCN(Cc4ccccc4)CC3)ccc2nc1-c1ccc(Cl)cc1 [compound 591, 5-(7-(4-benzyl-1,4-diazepane-1-carbonyl)-3-(4-chlorophenyl)quinoxalin-2-yl)pentanoic acid]",2.1 to 20 nM
13,"O=C(O)CCCCc1nc2cc(C(=O)N3CCN(C(=O)c4ccco4)CC3)ccc2nc1-c1ccc(Cl)cc1 [compound 592, 5-(3-(4-chlorophenyl)-7-(4-(furan-2-carbonyl)piperazine-1-carbonyl)quinoxalin-2-yl)pentanoic acid]",2.1 to 20 nM
14,"CN(Cc1ccccc1)C(=O)c1ccc2nc(-c3ccc(Cl)cc3)c(CCCCC(=O)O)nc2c1 [compound 593, 5-(7-(benzyl(methyl)carbamoyl)-3-(4-chlorophenyl)quinoxalin-2-yl)pentanoic acid]",0.1 to 2 nM
15,"O=C(O)CCCCc1nc2cc(C(=O)N3CCN(c4cnccn4)CC3)ccc2nc1-c1ccc(Cl)cc1 [compound 597, 5-(3-(4-chlorophenyl)-7-(4-(pyrazin-2-yl)piperazine-1-carbonyl)quinoxalin-2-yl)pentanoic acid]",2.1 to 20 nM
16,"O=C(O)CCCCc1nc2cc(C(=O)N3CCN4CCCC4C3)ccc2nc1-c1ccc(Cl)cc1 (centres unmarked) [compound 598, 5-(3-(4-chlorophenyl)-7-(octahydropyrrolo[1,2-a]pyrazine-2-carbonyl)quinoxalin-2-yl)pentanoic acid]",2.1 to 20 nM
17,"O=C(O)CCCCc1nc2cc(C(=O)N3CCN(c4ccc(C(F)(F)F)cn4)CC3)ccc2nc1-c1ccc(Cl)cc1 [compound 599, 5-(3-(4-chlorophenyl)-7-(4-(5-yl)piperazine-1-carbonyl)quinoxalin-2-yl)pentanoic acid]",0.1 to 2 nM
18,"O=C(O)CCCCc1nc2cc(C(=O)N3CCN(c4nc5ccccc5s4)CC3)ccc2nc1-c1ccc(Cl)cc1 [compound 602, 5-(7-(4-(benzo[d]thiazol-2-yl)piperazine-1-carbonyl)-3-(4-chlorophenyl)quinoxalin-2-yl)pentanoic acid]",0.1 to 2 nM

# The next lines start with the values.
row,Ki,Structure (SMILES)
1,2.1 to 20 nM,"O=C(O)CCCCc1nc2cc(C(=O)NC3C(=O)Nc4ccccc43)ccc2nc1-c1ccc(Cl)cc1 (centres unmarked) [compound 566, 5-(3-(4-chlorophenyl)-7-((2-oxoindolin-3-yl)carbamoyl)quinoxalin-2-yl)pentanoic acid]"
2,20.1 to 200 nM,"C[C@@H](NC(=O)c1ccc2nc(-c3ccc(F)cc3)c(CCCCC(=O)O)nc2c1)c1ccc(F)c2ccccc12 [compound 572, (R)-5-(7-((1-(4-fluoronaphthalen-1-yl)ethyl)carbamoyl)-3-(4-fluorophenyl)quinoxalin-2-yl)pentanoic acid]"
3,2.1 to 20 nM,"O=C(O)CCCCc1nc2cc(C(=O)N[C@@H]3COc4ccccc43)ccc2nc1-c1ccccc1 [compound 573, (S)-5-(7-((2,3-dihydrobenzofuran-3-yl)carbamoyl)-3-phenylquinoxalin-2-yl)pentanoic acid]"
4,2.1 to 20 nM,"O=C(O)CCCCc1nc2cc(C(=O)N[C@H]3COc4ccccc43)ccc2nc1-c1ccccc1 [compound 574, (R)-5-(7-((2,3-dihydrobenzofuran-3-yl)carbamoyl)-3-phenylquinoxalin-2-yl)pentanoic acid]"
5,0.1 to 2 nM,"CS(=O)(=O)N1CCC(NC(=O)c2ccc3nc(-c4ccccc4)c(CCCCC(=O)O)nc3c2)c2ccccc21 (centres unmarked) [compound 575, 5-(7-((1-(methylsulfonyl)-1,2,3,4-tetrahydroquinolin-4-yl)carbamoyl)-3-phenylquinoxalin-2-yl)pentanoic acid]"
6,0.1 to 2 nM,"O=C(O)CCCCc1nc2cc(C(=O)N3CC[C@H](c4ccc(F)cc4)C3)ccc2nc1-c1ccc(Cl)cc1 [compound 577, (R)-5-(3-(4-chlorophenyl)-7-(3-(4-fluorophenyl)pyrrolidine-1-carbonyl)quinoxalin-2-yl)pentanoic acid]"
7,0.1 to 2 nM,"CC1(C)CC(NC(=O)c2ccc3nc(-c4ccc(Cl)cc4)c(CCCCC(=O)O)nc3c2)c2ccccc2O1 (centres unmarked) [compound 582, 5-(3-(4-chlorophenyl)-7-((2,2-dimethylchroman-4-yl)carbamoyl)quinoxalin-2-yl)pentanoic acid]"
8,20.1 to 200 nM,"COc1ccc2c(c1)CCC[C@H]2NC(=O)c1ccc2nc(-c3ccc(F)cc3)c(CCCC(F)(F)C(=O)O)nc2c1 [compound 589, (R)-2,2-difluoro-5-(3-(4-fluorophenyl)-7-((6-methoxy-1,2,3,4-tetrahydro-naphthalen-1-yl)carbamoyl)quinoxalin-2-yl)pentanoic acid]"
9,201 to 700 nM,"O=C(O)CCCCc1nc2cc(C(=O)N3CCN(c4ccncc4)CC3)ccc2nc1-c1ccc(Cl)cc1 [compound 594, 5-(3-(4-chlorophenyl)-7-(4-(pyridin-4-yl)piperazine-l-carbonyl)quinoxalin-2-yl)pentanoic acid]"
10,0.1 to 2 nM,"N#Cc1cccnc1N1CCN(C(=O)c2ccc3nc(-c4ccc(Cl)cc4)c(CCCCC(=O)O)nc3c2)CC1 [compound 595, 5-(3-(4-chlorophenyl)-7-(4-(3-cyanopyridin-2-yl)piperazine-1-carbonyl)quinoxalin-2-yl)pentanoic acid]"
11,0.1 to 2 nM,"O=C(O)CCCCc1nc2cc(C(=O)N3CCN(c4c(Cl)cncc4Cl)CC3)ccc2nc1-c1ccc(Cl)cc1 [compound 596, 5-(3-(4-chlorophenyl)-7-(4-(3,5-dichloropyridin-4-yl)piperazine-1-carbonyl)quinoxalin-2-yl)pentanoic acid]"
12,0.1 to 2 nM,"O=C(O)CCCCc1nc2cc(C(=O)N3CCN(c4ccccc4C(F)(F)F)CC3)ccc2nc1-c1ccc(Cl)cc1 [compound 600, 5-(3-(4-chlorophenyl)-7-(4-(2-(trifluoromethyl)phenyl)piperazine-1-carbonyl)quinoxalin-2-yl)pentanoic acid]"
13,2.1 to 20 nM,"O=C(O)CCCCc1nc2cc(C(=O)N3CCN(c4nccs4)CC3)ccc2nc1-c1ccc(Cl)cc1 [compound 601, 5-(3-(4-chlorophenyl)-7-(4-(thiazol-2-yl)piperazine-1-carbonyl)quinoxalin-2-yl)pentanoic acid]"
14,2.1 to 20 nM,"O=C(O)CCCCc1nc2cc(C(=O)N3CCc4ccccc4C3)ccc2nc1-c1ccc(Cl)cc1 [compound 603, 5-(3-(4-chlorophenyl)-7-(1,2,3,4-tetrahydroisoquinoline-2-carbonyl)quinoxalin-2-yl)pentanoic acid]"
